According to PMC12190436, “5-Ene-2-arylaminothiazol-4(5H)-ones Induce Apoptosis in Breast Cancer Cells” (Cells, 2025):
Where a name gives a salt, the structure may show the parent alone. Read-outs that look alike come from different tables or passages of the source.

How the values were obtained:
MCF-7 cells [1] = experiment: [3H]-thymidine incorporation assay; format: cell-based; conditions: Homo sapiens, 24 h, read-out: [3H]-thymidine incorporation (% of control); for activity at 1 µM: MCF7, 1 µM; for activity at 2.5 µM: MCF7, 2.5 µM; for activity at 5 µM: MCF7, 5 µM
Description: To evaluate the effects of synthesized compounds and reference drug on cell proliferation [3H]-thymidine incorporation assay was applied. MCF-7 cells were seeded on 6-well plates as described before. After 24 h of incubation, the cells were treated with different concentrations of novel 4-thiazolidinone derivatives Les-6416, Les-6418 (1, 2.5, 5 µM), and doxorubicin hydrochloride (0.5 and 1 µM) for 24 h at 37 °C. After 24 h, the medium was changed to a fresh one without fetal bovine serum. A total of 0.5 µCi of tritium-labeled thymidine (specific activity: 7 Ci/mmol) was added to cells for 4 h. Afterwards, the cells were washed with 1 mL of 0.05 M Tris-HCl buffer pH 7.4 containing 0.11 M NaCl and […] 5% trichloroacetic acid (TCA). Each well was filled with 1 mL of a 0.1 M NaOH solution with 1% SDS for cell lysis. After 5 min, the cell lysates were transferred to scintillation vials, which were pre-filled beforehand with two milliliters of scintillation cocktail Ultima Gold XR from PerkinElmer (Waltham, MA, USA). The Scintillation Counter 1900 TR, TRI-CARB (Packard, Perkin Elmer, Inc., San Jose, CA, USA) was used to record the results. The radioactivity observed in untreated control cells was taken as 100%. The values of the tested compound were expressed as a percentage of the control value.
To investigate the antiproliferative activity of Les-6416 and Les-6418 on the MCF-7 cell line after 24 h of treatment, the [^3H]-thymidine incorporation assay was applied. Based on the outcome of previous analysis and the structural similarity of the tested compounds, 5, 2.5, and 1 µM concentrations were applied for this research. The obtained results are shown in the graph below (Figure 2). […] Formidable results also were obtained from the reference drug doxorubicin hydrochloride: 26.00 ± 7.07% for 1 µM and 43.50 ± 3.54% for 0.5 µM

MCF-7 cells [2] = experiment: Scratch assay (cell migration); format: cell-based, human; conditions: 24 h
Description: To assess the effects of the tested compounds on cell migration, the scratch assay method was applied [34]. Cells were seeded in 24-well plates at 2 × 10^5 cells per well in 1 mL medium and incubated overnight. Afterwards, they were left in an incubator at 37 °C for 24 h to attach to the wells. The next day, scratches were made using a 200 µL pipette tip in confluent monolayers. […] Images were obtained by utilizing a Nikon ECLIPSE Ti microscope (Nikon, Tokyo, Japan) after 0, 24, and 48 h. The area of the scratches was measured manually via ImageJ software version 1.54k (Bethesda, MD, USA).
The MCF-7 breast cancer cells were treated for 24 h with the tested compounds in concentrations of 5, 2.5, and 1 µM and doxorubicin hydrochloride in concentrations of 1 and 0.5 µM.

MCF-7 cells [3] = experiment: ROS generation, H2DCFDA/DAPI double staining; format: cell-based, human
Description: MCF-7 cells were seeded in 6-well plates at 1 × 10^5 cells per well in 2 mL medium. Afterwards, cells were treated with the mentioned compounds for 1 and 3 h, respectively. Next, cells were washed, and 20 µM of H2DCFDA was added for 30 min. After that, 10 µg/mL of DAPI was added to observe the nuclear DNA of cells. The results were obtained with the use of a Nikon ECLIPSE Ti fluorescence microscope (Nikon, Tokyo, Japan), followed by further assessment via ImageJ software version 1.54k (Bethesda, MD, USA).
H2DCFDA (green fluorescence) was utilized to mark oxidative stress, and DAPI (blue fluorescence) to stain nuclear genetic material.

SK-MEL-5 = format: cell-based
MDA-MB-468 = format: cell-based
[4] = test system: panel of 60 cancer cell lines; format: cell-based; conditions: for Mean Growth, % / Range of Growth, % / Positive Cytostatic Effect / Positive Cytotoxic Effect: 10 μM; for Mean Growth, % / Range of Growth, %: one dose; for Positive Cytostatic Effect: number of cell lines with GP from 0 to 50 / total number of cell lines; for Positive Cytotoxic Effect: number of cell lines with GP of <0 / total number of cell lines; for LC50: read-out: MG_MID_60 LC50
NCI-H460 = format: cell-based; conditions: for Growth %: NCI-H460, 10 μM, one dose, 48 h
MDA-MB-435 = format: cell-based; conditions: for Growth %: MDA-MB-435, 10 μM, one dose, 48 h
UACC-62 = format: cell-based
caspase 10 = experiment: FLICA caspase-10 activity, flow cytometry; format: cell-based, human; conditions: 5 µM, 24 h, MCF-7
Description: To determine the effects of the novel compounds on the caspases-3/7, caspase-8, caspase-9, and caspase-10 activity, the FLICA Caspase-3/7 Assay Kit, FLICA Caspase-8 Assay Kit, FLICA Caspase-9 Assay Kit, and FLICA Caspase-10 Assay Kit were applied (ImmunoChemistry Technologies, Bloomington, MN, USA). MCF-7 cells were seeded on 6-well plates (1 × 10^5 cells per well) and incubated for 24 h. Afterwards, they were treated for 24 h with tested compounds (Les-6416, Les-6418, Les-6381, Les-6423, and Les-6424) in a concentration of 5 µM and the reference drug doxorubicin hydrochloride in a concentration of 0.5 µM. Next, cells were amassed and washed two times with cold PBS, followed by resuspension in an Apoptosis Wash Buffer to a final concentration of 5 × 10^5 cells/mL. Afterwards, 290 µL of the prepared cell suspensions were transferred into tubes, followed by the addition of 10 µL of FLICA solution, prepared immediately before use, to each sample and incubated for an hour at 37 °C. Next, cells were washed two times with 2 mL of Apoptosis Wash Buffer, provided in the kit, centrifuged, and resuspended in 300 µL of the buffer. Prepared samples were assessed by a BD FACSCanto II flow cytometer (Becton Dickinson Biosciences, San Jose, CA, USA). For each sample, 1 × 10^4 events were analyzed. […]

## COc1cccc2c1C(=O)c1c(O)c3c(c(O)c1C2=O)C[C@@](O)(C(=O)CO)C[C@@H]3O[C@H]1C[C@H](N)[C@H](O)[C@H](C)O1 [DOX, Doxorubicin hydrochloride, reference compound]
MCF-7 cells [1]; MCF7, 0.5 µM
  activity at 0.5 µM: 43.5 ± 3.54%
MCF-7 cells [1]
  activity at 1 µM: 26 ± 7.07%
MCF-7 cells [2]; 0.5 µM
  Closure of the gap area: 25.50 ± 20.51%
MCF-7 cells [3]; 0.5 µM, 3 h
  ROS generation versus control: approximately two times more than the untreated control

## COc1cc(NC2=NC(=O)C(=Cc3c[nH]c4ccccc34)S2)cc(OC)c1OC [Les-6418, 5-((1H-Indol-3-yl)methylene)-2-((3,4,5-trimethoxyphenyl)amino)thiazol-4(5H)-one]
SK-MEL-5; Homo sapiens, SK-MEL-5, 48 h
  GI50: 2.46 µM
SK-MEL-5; Homo sapiens, SK-MEL-5, 48 h, read-out: LC50 (the source's name)
  CC50: 39.1 µM
SK-MEL-5; SK-MEL-5, 48 h
  TGI: 14.1 µM
SK-MEL-5; SK-MEL-5, MG_MID_60/value
  SI (TGI): 1.32
MDA-MB-468; Homo sapiens, MDA-MB-468, 48 h
  GI50: 0.657 µM
MDA-MB-468; Homo sapiens, MDA-MB-468, 48 h, read-out: LC50 (the source's name)
  CC50: 34.3 µM
MDA-MB-468; MDA-MB-468, 48 h
  TGI: 6.23 µM
MDA-MB-468; MDA-MB-468, MG_MID_60/value
  SI (TGI): 2.99
[4]; 48 h
  Mean Growth, %: −43.64%
  Range of Growth, %: −88.00–14.92%
[4]
  Positive Cytostatic Effect: 7/59
  Positive Cytotoxic Effect: 52/59
[4]; Homo sapiens, 48 h, full panel mean, 48 h
  LC50: 56.6 µM
[4]; Homo sapiens, CCRF-CEM, HL-60(TB), SR, NCI-H522, HT29, KM12, MDA-MB-435, OVCAR-3, ACHN, BT-549, MDA-MB-468, read-out: GI50, submicromolar concentration range
  GI50: 0.28 to 0.98 µM
[4]; Homo sapiens, full panel mean, 48 h, read-out: MG_MID_60 GI50
  GI50: 3.27 µM
[4]; full panel mean, 48 h
  MG_MID_60 TGI: 18.6 µM
  LC50: 56.5 µM
[4]; subpanel selectivity indices at studied dose–response parameters
  SI against certain types of cancer: 0.71–1.60
NCI-H460; Homo sapiens, NCI-H460, 48 h
  GI50: 2.1 µM
  LC50 (50% lethal concentration): 92 µM
NCI-H460
  Growth %: −77.59%
NCI-H460; NCI-H460, 48 h
  TGI: 14.3 µM
NCI-H460; NCI-H460, MG_MID_60/value
  SI (TGI): 1.30
MCF-7 cells [1]
  activity at 1 µM: 95.5 ± 7.78%
  activity at 2.5 µM: 72 ± 12.7%
  activity at 5 µM: 48.5 ± 12%
MDA-MB-435; Homo sapiens, MDA-MB-435, 48 h
  GI50: 0.28 µM
  LC50: 14.2 µM
MDA-MB-435
  Growth %: −77.11%
MDA-MB-435; MDA-MB-435, 48 h
  TGI: 0.940 µM
MDA-MB-435; MDA-MB-435, MG_MID_60/value
  SI (TGI): 19.8
UACC-62; Homo sapiens, UACC-62, 48 h
  GI50: 4.75 µM
UACC-62; Homo sapiens, UACC-62, 48 h, read-out: LC50 (the source's name)
  CC50: 48.3 µM
UACC-62; UACC-62, 48 h
  TGI: 19.7 µM
UACC-62; UACC-62, MG_MID_60/value
  SI (TGI): 0.94

## COc1cc(NC2=NC(=O)C(=Cc3cccs3)S2)cc(OC)c1OC [Les-6423, 5-(Thiophen-2-ylmethylene)-2-((3,4,5-trimethoxyphenyl)amino)thiazol-4(5H)-one]
Caspase 10
  cells with active caspase 10: did not show any effect

## COc1cc(NC2=NC(=O)C(=Cc3ccc4cc[nH]c4c3)S2)cc(OC)c1OC [Les-6416, 5-((1H-Indol-6-yl)methylene)-2-((3,4,5-trimethoxyphenyl)amino)thiazol-4(5H)-one]
SK-MEL-5; SK-Mel-5, 10 μM, one dose, 48 h
  Growth %: −4.74%
MDA-MB-468; MDA-MB-468, 10 μM, one dose, 48 h
  Growth %: 1.33%
[4]; 48 h
  Mean Growth, %: 39.56%
  Range of Growth, %: −33.26–97.05%
[4]
  Positive Cytostatic Effect: 38/58
  Positive Cytotoxic Effect: 2/58
NCI-H460
  Growth %: 17.93%
MCF-7 cells [1]
  activity at 1 µM: 69 ± 1.41%
  activity at 2.5 µM: 27 ± 5.66%
  activity at 5 µM: 21.5 ± 2.12%
MDA-MB-435
  Growth %: −33.26%
Caspase 10
  cells with active caspase 10: 43.23 ± 2.85%
MCF-7 cells [2]; 1 µM
  Closure of the gap area: 21.00 ± 7.07%
UACC-62; UACC-62, 10 μM, one dose, 48 h
  Growth %: 18.03%
MCF-7 cells [3]; 2.5 µM, 3 h
  ROS generation versus control: approximately two times more than the untreated control
MCF-7 cells [3]; 5 µM, 1 h
  ROS generation versus control: two times more than the control
MCF-7 cells [3]; 5 µM, 3 h
  ROS generation versus control: approximately a threefold increase
